Here are results for 22 molecules from paper PMC10539350 (Scientific Reports, 2023).

In assay [1] the test system is M. tuberculosis SIRE Ciprofloxacin resistant 22/22. In kind it is cell-based, Mycobacterium tuberculosis. Also on record: unit not given beside the values.
For assay [2] the test system is unchanged. Description: tuberculostatic activity, broth microdilution MIC (Alamar blue). In kind it is cell-based, Mycobacterium tuberculosis. For orientation: Broth dilution looks for growth in wells or tubes with falling amounts of substance.
The mark [3] stands for this setting: Mycobacterium tuberculosis; read-out: Minimal inhibitory concentration.
[4] abbreviates: Mycobacterium tuberculosis, read-out: Minimal inhibitory concentration.

Structures are written as SMILES. ≈ marks a conversion by molar mass, not a printed value. Where two headings read alike, the source gives them in different places.

Turning to `O=C(O)c1cn(C2CC2)c2cc(N3CCNCC3)c(F)cc2c1=O` [Ciprofloxacin, reference compound], in assay [1], the “MIC for reference drug in the presence of derivative 6” value is 8.
For the molecule `CC1CCC(C(C)C)C(OCC(=O)N2CCN(c3cc4c(cc3F)c(=O)c(C(=O)O)cn4C3CC3)CC2)C1` (stereo not drawn) [Compound 1], the MIC in assay [2] (setting [3]) came to 32 µg/mL (≈ 60.6 µM).
On the same count and under the same terms, as for `CC1CCC(C(C)C)C(OC(=O)CN2CCN(c3cc4c(cc3F)c(=O)c(C(=O)O)cn4C3CC3)CC2)C1` (stereo not drawn) [Compound 2], the figure is 16 µg/mL (≈ 30.3 µM); as for `CC1CCC(C(C)C)C(OC(=O)CCN2CCN(c3cc4c(cc3F)c(=O)c(C(=O)O)cn4C3CC3)CC2)C1` (stereo not drawn) [Compound 3], 16 µg/mL (≈ 29.5 µM).
Same read-out and setting: in the case of `CC1CCC(C(C)C)C(OC(=O)CCCN2CCN(c3cc4c(cc3F)c(=O)c(C(=O)O)cn4C3CC3)CC2)C1` (stereo not drawn) [Compound 4] it was 16 µg/mL (≈ 28.8 µM).
On the same count and under the same terms, in the case of `CC1CCC(C(C)C)C(OC(=O)CCCCN2CCN(c3cc4c(cc3F)c(=O)c(C(=O)O)cn4C3CC3)CC2)C1` (stereo not drawn) [Compound 5] it was 16 µg/mL (≈ 28.1 µM).
Regarding `CC(C)[C@@H]1CC[C@@H](C)C[C@H]1OC(=O)CCCCCN1CCN(c2cc3c(cc2F)c(=O)c(C(=O)O)cn3C2CC2)CC1` [Compound 6, 1‐cyclopropyl‐6‐fluoro‐7‐{4‐[6‐((1R,2S,5R)‐2‐isopropyl‐5‐methylcyclohexyloxy)‐6‐oxohexyl]piperazin‐1‐yl}‐4‐oxo‐1,4‐dihydroquinoline‐3‐carboxylic acid], the MIC in assay [2] (setting [3]) came to 8 µg/mL (≈ 13.7 µM).
Same read-out and setting: in the case of `CC1CCC(C(C)C)C(OC(=O)CCCCOC(=O)c2cn(C3CC3)c3cc(N4CCN(CCCCC(=O)OC5CC(C)CCC5C(C)C)CC4)c(F)cc3c2=O)C1` (stereo not drawn) [Compound 7] it was 256 µg/mL (≈ 317 µM).
The same measure, in the same setting: as for `CC1CCC(C(C)C)C(OC(=O)CCCCCOC(=O)c2cn(C3CC3)c3cc(N4CCN(CCCCCC(=O)OC5CC(C)CCC5C(C)C)CC4)c(F)cc3c2=O)C1` (stereo not drawn) [Compound 8], the figure is 256 µg/mL (≈ 306 µM); as for `Cc1ccc(C(C)C)c(OCC(=O)N2CCN(c3cc4c(cc3F)c(=O)c(C(=O)O)cn4C3CC3)CC2)c1` [Compound 9], 128 µg/mL (≈ 245 µM); as for `Cc1ccc(C(C)C)c(OC(=O)CN2CCN(c3cc4c(cc3F)c(=O)c(C(=O)O)cn4C3CC3)CC2)c1` [Compound 10], 128 µg/mL (≈ 245 µM).
Same read-out and setting: in the case of `Cc1ccc(C(C)C)c(OC(=O)CCN2CCN(c3cc4c(cc3F)c(=O)c(C(=O)O)cn4C3CC3)CC2)c1` [Compound 11] it was 64 µg/mL (≈ 119 µM).
Take `Cc1ccc(C(C)C)c(OC(=O)CCCN2CCN(c3cc4c(cc3F)c(=O)c(C(=O)O)cn4C3CC3)CC2)c1` [Compound 12]: the MIC in assay [2] (setting [3]) was found to be 32 µg/mL (≈ 58.2 µM).
On the same count and under the same terms, in the case of `Cc1ccc(C(C)C)c(OC(=O)CCCCN2CCN(c3cc4c(cc3F)c(=O)c(C(=O)O)cn4C3CC3)CC2)c1` [Compound 13] it was 32 µg/mL (≈ 56.8 µM); in that of `Cc1ccc(C(C)C)c(OC(=O)CCCCCN2CCN(c3cc4c(cc3F)c(=O)c(C(=O)O)cn4C3CC3)CC2)c1` [Compound 14], 16 µg/mL (≈ 27.7 µM).
Turning to `Cc1ccc(C(C)C)c(OC(=O)CCCOC(=O)c2cn(C3CC3)c3cc(N4CCN(CCCC(=O)Oc5cc(C)ccc5C(C)C)CC4)c(F)cc3c2=O)c1` [Compound 15], the MIC in assay [2] (setting [3]) was 256 µg/mL (≈ 333 µM).
Still for that read-out and setting: as for `Cc1ccc(C(C)C)c(OC(=O)CCCCCOC(=O)c2cn(C3CC3)c3cc(N4CCN(CCCCCC(=O)Oc5cc(C)ccc5C(C)C)CC4)c(F)cc3c2=O)c1` [Compound 16], the figure is 256 µg/mL (≈ 311 µM).
Same read-out and setting: in the case of `CC[C@@H](CO)NCCN[C@@H](CC)CO` [Ethambutol, reference compound] it was 4 µg/mL (≈ 19.6 µM).
On the same count and under the same terms, as for `NNC(=O)c1ccncc1` [Isoniazid, reference compound], the figure is 32 µg/mL (≈ 233 µM).
As for `CC(=O)NC[C@H]1CN(c2ccc(N3CCOCC3)c(F)c2)C(=O)O1` [Linezolid, reference compound], the MIC in assay [2] (setting [4]) was found to be 8 µg/mL (≈ 23.7 µM). The “MIC for reference drug in the presence of derivative 6” value in assay [1] is 4.
Take `CO[C@H]1/C=C/O[C@@]2(C)Oc3c(C)c(O)c4c(O)c(c(/C=N/N5CCN(C)CC5)c(O)c4c3C2=O)NC(=O)/C(C)=C\C=C\[C@H](C)[C@H](O)[C@@H](C)[C@@H](O)[C@@H](C)[C@H](OC(C)=O)[C@@H]1C` [Rifampicin, reference compound]: the activity in words result in assay [2] is “no activity”. In addition, the MIC in assay [2] (setting [4]) came to 256 µg/mL (≈ 311 µM).
For `[H]/N=C(/N)N[C@H]1[C@H](O)[C@@H](O)[C@H](O[C@@H]2O[C@@H](C)[C@](O)(C=O)[C@H]2O[C@@H]2O[C@@H](CO)[C@H](O)[C@@H](O)[C@@H]2NC)[C@@H](N/C(N)=N\[H])[C@@H]1O` [Streptomycin, reference compound], the MIC in assay [2] (setting [3]) amounted to 32 µg/mL (≈ 55 µM).
